Assay results: publication PMC9127750, “Structure-based design of CDC42 effector interaction inhibitors for the treatment of cancer” (Cell reports, 2022)

Tests used:
[1] = system: A498; assay: cells; conditions: Homo sapiens, A498, read-out: IC50 ARN22089
Outline: (§1)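 Seed cells in appropriate media; add compound; incubate overnight, 37°C; quantify viable cells with CellTiterGlo.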

[2] = system: A549; assay: cells; conditions: Homo sapiens, A549, read-out: IC50 ARN22089
Outline: as §1

[3] = system: BEN; assay: cells; conditions: read-out: IC50 ARN22089
Outline: as §1

[4] = system: DLD-1; assay: cells; conditions: Homo sapiens, DLD-1, read-out: IC50 ARN22089
Outline: as §1

[5] = system: EFO-27; assay: cells; conditions: Homo sapiens, EFO-27, read-out: IC50 ARN22089
Outline: as §1

[6] = system: EPLC-272H; assay: cells; conditions: Homo sapiens, read-out: IC50 ARN22089
Outline: as §1

[7] = system: HCC827; assay: cells; conditions: Homo sapiens, HCC827, read-out: IC50 ARN22089
Outline: as §1

[8] = system: LOU-NH91; assay: cells; conditions: LOU-NH91, read-out: IC50 ARN22089
Outline: as §1

[9] = system: MCAS; assay: cells; conditions: read-out: IC50 ARN22089
Outline: as §1

[10] = system: MDAMB435; assay: cells; conditions: Homo sapiens, MDA-MB-435, read-out: IC50 ARN22089
Outline: as §1

[11] = system: NCI-H1048; assay: cells; conditions: Homo sapiens, NCI-H1048, read-out: IC50 ARN22089
Outline: as §1

[12] = system: NCI-H1563; assay: cells; conditions: Homo sapiens, NCI-H1563, read-out: IC50 ARN22089
Outline: as §1

[13] = system: NCI-H1573; assay: cells; conditions: Homo sapiens, NCI-H1573, read-out: IC50 ARN22089
Outline: as §1

[14] = system: NCI-H1703; assay: cells; conditions: Homo sapiens, NCI-H1703, read-out: IC50 ARN22089
Outline: as §1

[15] = system: NCI-H1838; assay: cells; conditions: Homo sapiens, NCI-H1838, read-out: IC50 ARN22089
Outline: as §1

[16] = system: NCI-H2110; assay: cells; conditions: NCI-H2110, read-out: IC50 ARN22089
Outline: as §1

[17] = system: NCI-H838; assay: cells; conditions: Homo sapiens, NCI-H838, read-out: IC50 ARN22089
Outline: as §1

[18] = system: OV56; assay: cells; conditions: OV56, read-out: IC50 ARN22089
Outline: as §1

[19] = system: P31/FUJ; assay: cells; conditions: Homo sapiens, read-out: IC50 ARN22089
Outline: as §1

[20] = system: PC3; assay: cells; conditions: Homo sapiens, PC-3, read-out: IC50 ARN22089
Outline: as §1

[21] = system: SCLC-21H; assay: cells; conditions: Homo sapiens, read-out: IC50 ARN22089
Outline: as §1

[22] = system: SK-LU-1; assay: cells; conditions: Homo sapiens, SK-LU-1, read-out: IC50 ARN22089
Outline: as §1

[23] = system: SK-N-SH; assay: cells; conditions: Homo sapiens, read-out: IC50 ARN22089
Outline: as §1

[24] = system: SKMel3; assay: cells; conditions: Homo sapiens, SK-MEL3, read-out: IC50 Skmel3
Outline: as §1

[25] = system: SNU-1; assay: cells; conditions: Homo sapiens, SNU1, read-out: IC50 ARN22089
Outline: as §1

[26] = system: SNU840; assay: cells; conditions: SNU-840, read-out: IC50 ARN22089
Outline: as §1

[27] = system: SW948; assay: cells; conditions: Homo sapiens, SW948, read-out: IC50 ARN22089
Outline: as §1

[28] = system: U-937; assay: cells; conditions: Homo sapiens, U-937, read-out: IC50 ARN22089
Outline: as §1

[29] = system: U87MG; assay: cells; conditions: Homo sapiens, U-87 MG, read-out: IC50 ARN22089
Outline: as §1

[30] = In vitro microsomal stability assay; assay type: in vitro ADME; conditions: pH 7.4; human liver microsomes; read-out: half-life after incubation with human microsomes
Description: 10 mM DMSO stock solution of each compound was pre-incubated at 37°C for 15 min with liver microsomes from all the three species (mouse, rat, human) in 0.1M Tris-HCl buffer (pH 7.4). The final concentration was 4.6 μM. After pre-incubation, the co-factors (NADPH, G6P, G6PDH and MgCl2 pre-dissolved in 0.1M Tris-HCl) were added to the mixture and the incubation was continued at 37°C for 1 h. […] The supernatant was then further diluted with H2O (1:1) for analysis. […] The percentage of test compound remaining at each time point relative to the amount observed at t = 0 was calculated. The half-lives (t½) were determined by a one-phase decay equation using a non-linear regression of compound concentration versus time.

[31] = system: panel of 47 classical pharmacological targets; assay: Off-target panel (agonist/antagonist); conditions: concentrations up to 25 μM
[32] = biological target: RAC1 and PAK1-PBD interaction (Homo sapiens, UniProt P63000); assay: CDC42 interaction assay (PAK1-PBD pull-down); assay type: cell-based; design: endogenous in cells; host or cells: WM3248 (or WM983B) melanoma cells; PAK1 PBD beads from Cell Biolabs kit; conditions: WM3248 cells; ARN22089 at 10 or 50 μM
Description: A CDC42 activation assay was performed according to the manufacturer’s protocol (Cell Biolabs, San Diego, CA) as described previously ([Ruiz et al., 2017]). […] 24 hours later the lysates from treated and untreated cells were unloaded of guanosine nucleotides and either loaded with GDP or GTPγS. […] Precipitated lysates were then immunoblotted with indicated antibodies.

**Q.** For `CN(C)c1cccc(Nc2cc(-c3ccccc3)nc(C3CCNCC3)n2)c1` [ARN22089, N1,N1-dimethyl-N3-(6-phenyl-2-(piperidin-4-yl)pyrimidin-4-yl)benzene-1,3-diamine], which IC50 [1] is on record?
**A.** The IC50 was 10 µM.

**Q.** What about the IC50 [2] of the same molecule?
**A.** The IC50 was 11 µM.

**Q.** And the IC50 [3]?
**A.** Its IC50 is 12 µM.

**Q.** What about the IC50 [4] of the same molecule?
**A.** The IC50 was 5 µM.

**Q.** What about the IC50 [5] of the same molecule?
**A.** Its IC50 is 12 µM.

**Q.** What about the IC50 [6] of the same molecule?
**A.** The IC50 was 16 µM.

**Q.** And the IC50 [7]?
**A.** The IC50 was 11 µM.

**Q.** And the IC50 [8]?
**A.** Its IC50 is 29 µM.

**Q.** And the IC50 [9]?
**A.** Its IC50 is 4.6 µM.

**Q.** What about the IC50 [10] of the same molecule?
**A.** The IC50 was 10 µM.

**Q.** And the IC50 [11]?
**A.** The IC50 was 22 µM.

**Q.** What about the IC50 [12] of the same molecule?
**A.** The IC50 was 16 µM.

**Q.** And the IC50 [13]?
**A.** Its IC50 is 24 µM.

**Q.** And the IC50 [14]?
**A.** The IC50 was 37 µM.

**Q.** And the IC50 [15]?
**A.** The IC50 was 17 µM.

**Q.** And the IC50 [16]?
**A.** Its IC50 is 21 µM.

**Q.** And the IC50 [17]?
**A.** Its IC50 is 12 µM.

**Q.** What about the IC50 [18] of the same molecule?
**A.** Its IC50 is 13 µM.

**Q.** What about the IC50 [19] of the same molecule?
**A.** The IC50 was 14 µM.

**Q.** What about the IC50 [20] of the same molecule?
**A.** The IC50 was 9.1 µM.

**Q.** What about the IC50 [21] of the same molecule?
**A.** The IC50 was 5.4 µM.

**Q.** What about the IC50 [22] of the same molecule?
**A.** Its IC50 is 7.8 µM.

**Q.** And the IC50 [23]?
**A.** Its IC50 is 8.1 µM.

**Q.** And the IC50 [24]?
**A.** The IC50 was 4.26 µM.

**Q.** And the IC50 [25]?
**A.** The IC50 was 7.8 µM.

**Q.** And the IC50 [26]?
**A.** Its IC50 is 6.5 µM.

**Q.** What about the IC50 [27] of the same molecule?
**A.** The IC50 was 8.3 µM.

**Q.** What about the IC50 [28] of the same molecule?
**A.** The IC50 was 3.5 µM.

**Q.** And the IC50 [29]?
**A.** The IC50 was 6.1 µM.

**Q.** And the half-life at […] [30]?
**A.** The half-life at […] was 510 min.

**Q.** What about the “off-target effects as an agonist or an antagonist” value [31] of the same molecule?
**A.** The value was “no significant off-target effects”.

**Q.** And the “inhibition of RAC1 - PAK1-PBD interaction” value [32]?
**A.** Its value is “did not inhibit”.
